The values that follow come from US6518291B1, “Inhibitors of IMPDH enzyme” (Vertex Pharmaceuticals, Incorporated, priority 1997, dated 2003).

The target in the assay is IMPDH human type II (Homo sapiens, UniProt P12268). The assay is described as follows: IMPDH Activity Inhibition Assay (spectrophotometric, NADH formation at 340 nm). The following applies: 37° C., tight-binding equations of Henderson. The assay is classed as biochemical. The protocol:
We measured the inhibition constants of the compounds listed in Table II utilizing the following protocol:
IMP dehydrogenase activity was assayed following an adaptation of the method first reported by Magasanik. [Magasanik, B. Moyed, H. S. and Gehring L. B. (1957) J. Biol. Chem. 226, 339]. Enzyme activity was measured spectrophotometrically, by monitoring the increase in absorbance at 340 nm due to the formation of NADH (ε340 is 6220 M^−1 cm^−1). The reaction mixture contained 0.1 M Tris pH 8.0, 0.1 M KCl, 3 mM EDTA, 2 mM DTT, […] and enzyme (IMPDH human type II) at a concentration of 15 to 50 nM. This solution is incubated at 37° C. for 10 minutes. The reaction is started by adding NAD to a final concentration of […] and the initial rate is measured by following the linear increase in absorbance at 340 nm for 10 minutes. For reading in a standard spectrophotometer (path length 1 cm) the final volume in the cuvette is 1.0 ml. The assay has also been adapted to a 96 well microtiter plate format; in this case the concentrations of all the reagents remain the same and the final volume is decreased to 200 μl.
For the analysis of inhibitors, the compound in question is dissolved in DMSO to a final concentration of 20 mM and added to the initial assay mixture for preincubation with the enzyme at a final volume of 2-5% (v/v). The reaction is started by the addition of NAD, and the initial rates measured as above. Ki determinations are made by measuring the initial velocities in the presence of varying amounts of inhibitor and fitting the data using the tight-binding equations of Henderson (Henderson, P. J. F. (1972) Biochem. J. 127, 321].
Ki values are expressed in nM. Category “A” indicates 0.01 to 500 nm activity, category “B” indicates 501-5,000 nm activity, category “C” indicates 5,001 to 15,000 nm activity, category “D” indicates greater than 15,000 nm activity. The designation “ND” is used where a given compound was not tested.

Molecules are shown by their SMILES.

`COc1cc(Nc2nc3ccccc3s2)ccc1-c1cnco1` [Compound 9] came in with a Ki of 0.01 to 500 nM. Under `COc1ccccc1Nc1nc2ccccc2s1` [Compound 7] stands over 15000 nM; under `COc1cc(Nc2nc3ccc(CO)cc3[nH]2)ccc1-c1cnco1` [Compound 11], 501 to 5000 nM. Next, `COc1cccc(Nc2nc3ccccc3o2)c1` [Compound 24]: over 15000 nM. With `COc1ccc(Nc2nc3ccccc3[nH]2)cc1` [Compound 3], the Ki was over 15000 nM.

Consider `COc1cc(Nc2nc3c(C)cccc3[nH]2)ccc1-c1cnco1` [Compound 16], for which the inhibition constant (Ki) was 0.01 to 500 nM. For the compound `c1ccc(Nc2nc3ccccc3[nH]2)cc1` [Compound 2], the Ki is over 15000 nM. The compound `COC(=O)c1ccc2nc(Nc3ccc(-c4cnco4)c(OC)c3)[nH]c2c1` [Compound 10] gave a Ki of 0.01 to 500 nM. On to `Clc1cc(Nc2nc3ccccc3o2)ccc1-c1cnco1` [Compound 23], for which the Ki was in the range of 501 to 5000 nM.

On to `COc1cc(Nc2nc3cc(C)c(C)cc3o2)ccc1-c1cnco1` [Compound 17], for which the Ki lay in the range of 0.01 to 500 nM. For the compound `COc1cc(Nc2nc3ccccc3[nH]2)ccc1-c1cnco1` [Compound 5], the Ki lay in the range of 501 to 5000 nM.

In turn, `COc1ccccc1Nc1nc2ccccc2o1` [Compound 6] showed a Ki of over 15000 nM. With `N#Cc1ccc(Nc2nc3ccccc3o2)cc1Cl` [Compound 20], the Ki is over 15000 nM. Under `COc1cc(Nc2nc3cc(C)ccc3o2)ccc1-c1cnco1` [Compound 12] stands 0.01 to 500 nM; under `COc1cc(Nc2nc3ccccc3s2)ccc1C#N` [Compound 13], 5000 to 15000 nM; under `COc1cc(Nc2nc3ccc(C)cc3o2)ccc1-c1cnco1` [Compound 14], 0.01 to 500 nM. Next, `Cc1ccc(Nc2nc3ccccc3[nH]2)cc1` [Compound 4]: over 15000 nM; `COc1cc(Nc2nc3ccccc3o2)ccc1C#N` [Compound 21]: over 15000 nM; `COc1cc(Nc2nc3ccccc3o2)ccc1-c1cnco1` [Compound 8]: 0.01 to 500 nM. Compound `COc1ccc(Nc2nc3ccccc3o2)cc1OC` [Compound 19] returned a Ki of over 15000 nM.

As to `COc1cc(Nc2nc3cc(C)ccc3o2)ccc1-c1cnco1` [Compound 22], the Ki lay in the range of 501 to 5000 nM.

For the compound `c1ccc2oc(Nc3ccc(-c4cnco4)cc3)nc2c1` [Compound 18], the Ki is over 15000 nM.

With `COc1cc(Nc2nc3ccccc3[nH]2)ccc1C#N` [Compound 15], the Ki lay within 5000 to 15000 nM. Under `C=CCc1cccc2nc(Nc3ccc(-c4cnco4)c(OC)c3)oc12` [Compound 25] stands 0.01 to 500 nM.

As a reminder, the Ki is a dissociation constant, usually derived from enzyme kinetics or from competition with a known ligand. Lower therefore signals tighter binding.
